Where a SMILES comes first, the peptide text is derived from it. Bridges are numbered along the chain shown (N, C = ends).
Tests used:
[1] = Displacement of [125I]-alpha-bungarotoxin from Aplysia californica C-terminal His6-tagged N-terminal gp67 signal peptide-tagged acetylcholine receptor binding protein expressed in Hi5 insect cells preincubated for 3 hrs followed by [125I]-alpha-bungarotoxin measured after 5 mins by radioligand binding assay
[2] = target: T1, Neuronal acetylcholine receptor; alpha3/beta2 (Rattus norvegicus) (UniProt P04757+P12390); experiment: Antagonist activity at wild type rat alpha3beta2 nAChR expressed in Xenopus laevis oocytes assessed as inhibition of Ach-induced response at 1 uM at -70 mV holding potential measured after 5 mins by voltage-clamp assay relative to control; assay type: cell-based; settings: Oocyte, filed as antagonist
Oocyte [3] = experiment: Antagonist activity at rat alpha3beta2 nAChR F106V mutant expressed in Xenopus laevis oocytes assessed as inhibition of Ach-induced response at 1 uM at -70 mV holding potential measured after 5 mins by voltage-clamp assay relative to control; assay type: cell-based; settings: filed as antagonist
Oocyte [4] = experiment: Antagonist activity at rat alpha3beta2 nAChR S108T mutant expressed in Xenopus laevis oocytes assessed as inhibition of Ach-induced response at 1 uM at -70 mV holding potential measured after 5 mins by voltage-clamp assay relative to control; assay type: cell-based
[5] = target: T1, Neuronal acetylcholine receptor; alpha3/beta2 (Rattus norvegicus); experiment: Antagonist activity at rat wild-type alpha3beta2 nAChR expressed in Xenopus laevis oocytes assessed as inhibition of Ach-induced response at 10 nM at -70 mV holding potential measured after 5 mins by voltage-clamp assay relative to control; assay type: cell-based; settings: Oocyte
Oocyte [6] = experiment: Antagonist activity at rat alpha3beta2 nAChR S113R mutant expressed in Xenopus laevis oocytes assessed as inhibition of Ach-induced response at 10 nM at -70 mV holding potential measured after 5 mins by voltage-clamp assay relative to control; assay type: cell-based; settings: filed as antagonist
[7] = Antagonist activity at rat alpha3beta2 nAChR F106V mutant expressed in Xenopus laevis oocytes assessed as inhibition of Ach-induced response at -70 mV holding potential measured after 5 mins by voltage-clamp assay; assay type: cell-based; settings: Oocyte
[8] = Antagonist activity at rat alpha3beta2 nAChR S108T mutant expressed in Xenopus laevis oocytes assessed as inhibition of Ach-induced response at -70 mV holding potential measured after 5 mins by voltage-clamp assay; assay type: cell-based; settings: Oocyte
[9] = Antagonist activity at rat alpha3beta2 nAChR A110V mutant expressed in Xenopus laevis oocytes assessed as inhibition of Ach-induced response at -70 mV holding potential measured after 5 mins by voltage-clamp assay; assay type: cell-based; settings: Oocyte
[10] = Antagonist activity at rat alpha3beta2 nAChR S113R mutant expressed in Xenopus laevis oocytes assessed as inhibition of Ach-induced response at -70 mV holding potential measured after 5 mins by voltage-clamp assay; assay type: cell-based; settings: Oocyte
[11] = Antagonist activity at rat alpha3beta2 nAChR Y114S mutant expressed in Xenopus laevis oocytes assessed as inhibition of Ach-induced response at -70 mV holding potential measured after 5 mins by voltage-clamp assay; assay type: cell-based; settings: Oocyte
[12] = Antagonist activity at rat alpha3beta2 nAChR D115N mutant expressed in Xenopus laevis oocytes assessed as inhibition of Ach-induced response at -70 mV holding potential measured after 5 mins by voltage-clamp assay; assay type: cell-based; settings: Oocyte
[13] = Antagonist activity at rat alpha3beta2 nAChR D165P mutant expressed in Xenopus laevis oocytes assessed as inhibition of Ach-induced response at -70 mV holding potential measured after 5 mins by voltage-clamp assay; assay type: cell-based; settings: Oocyte
[14] = Antagonist activity at rat alpha3beta2 nAChR V166T mutant expressed in Xenopus laevis oocytes assessed as inhibition of Ach-induced response at -70 mV holding potential measured after 5 mins by voltage-clamp assay; assay type: cell-based; settings: Oocyte
[15] = Antagonist activity at rat alpha3beta2 nAChR S168I mutant expressed in Xenopus laevis oocytes assessed as inhibition of Ach-induced response at -70 mV holding potential measured after 5 mins by voltage-clamp assay; assay type: cell-based; settings: Oocyte
[16] = Antagonist activity at rat alpha3beta2 nAChR L169M mutant expressed in Xenopus laevis oocytes assessed as inhibition of Ach-induced response at -70 mV holding potential measured after 5 mins by voltage-clamp assay; assay type: cell-based; settings: Oocyte
Oocyte [17] = experiment: Antagonist activity at rat alpha3beta2 nAChR S168I mutant expressed in Xenopus laevis oocytes assessed as inhibition of Ach-induced response at 10 nM at -70 mV holding potential measured after 5 mins by voltage-clamp assay relative to control; assay type: cell-based; settings: filed as antagonist
[18] = target: Neuronal acetylcholine receptor; alpha3/beta2 (Rattus norvegicus, UniProt P04757+P12390); experiment: Antagonist activity at rat alpha3beta2 nAChR expressed in Xenopus laevis oocytes assessed as inhibition of Ach-induced response at -70 mV holding potential incubated for 5 mins by voltage-clamp assay; assay type: cell-based, Oocyte
[19] = target: Neuronal acetylcholine receptor; alpha3/beta4 (Rattus norvegicus, UniProt P04757+P12392); experiment: Antagonist activity at rat alpha3beta4 nAChR expressed in Xenopus laevis oocytes assessed as inhibition of Ach-induced response at -70 mV holding potential incubated for 5 mins by voltage-clamp assay; assay type: cell-based, Oocyte
Rattus norvegicus = species on record: Rattus norvegicus; experiment: Selectivity index, ratio of IC50 for rat alpha3beta4 nAChR expressed in Xenopus laevis oocytes to IC50 for rat alpha3beta2 nAChR expressed in Xenopus laevis oocytes; assay type: cell-based
[20] = target: T1, Neuronal acetylcholine receptor; alpha3/beta2 (Rattus norvegicus); experiment: Antagonist activity at rat alpha3beta2 nAChR expressed in Xenopus laevis oocytes assessed as inhibition of Ach-induced response at -70 mV holding potential incubated for 5 mins by voltage-clamp assay relative to LvIA IC50; assay type: cell-based; settings: Oocyte
Oocyte [21] = experiment: Antagonist activity at rat alpha3beta2 nAChR S168I mutant expressed in Xenopus laevis oocytes assessed as inhibition of Ach-induced response by measuring recovery of ACh-induced response time at 10 nM with -70 mV holding potential measured after 5 mins voltage-clamp assay; assay type: cell-based
[22] = target: T1, Neuronal acetylcholine receptor; alpha3/beta2 (Rattus norvegicus); experiment: Antagonist activity at rat alpha3beta2 nAChR expressed in Xenopus laevis oocytes assessed as inhibition of Ach-induced response by measuring recovery of ACh-induced response time at 10 nM with -70 mV holding potential measured after 5 mins voltage-clamp assay; assay type: cell-based; settings: Oocyte
Hi-5 = experiment: Displacement of [125I]-alpha-bungarotoxin from Aplysia californica C-terminal His6-tagged N-terminal gp67 signal peptide-tagged acetylcholine receptor binding protein expressed in Hi5 insect cells preincubated for 3 hrs followed by [125I]-alpha-bungarotoxin measured after 5 mins by radioligand binding assay relative to LvIA IC50; settings: time 185.0 min
[23] = target: Neuronal acetylcholine receptor; alpha3/beta4 (Rattus norvegicus) (UniProt P04757+P12392); experiment: Antagonist activity at rat alpha3beta4 nAChR expressed in Xenopus laevis oocytes assessed as inhibition of Ach-induced response at -70 mV holding potential incubated for 5 mins by voltage-clamp assay relative to LvIA IC50; assay type: cell-based; settings: Oocyte

Chain of Neuronal acetylcholine receptor; alpha3/beta4 (P04757 whole entry): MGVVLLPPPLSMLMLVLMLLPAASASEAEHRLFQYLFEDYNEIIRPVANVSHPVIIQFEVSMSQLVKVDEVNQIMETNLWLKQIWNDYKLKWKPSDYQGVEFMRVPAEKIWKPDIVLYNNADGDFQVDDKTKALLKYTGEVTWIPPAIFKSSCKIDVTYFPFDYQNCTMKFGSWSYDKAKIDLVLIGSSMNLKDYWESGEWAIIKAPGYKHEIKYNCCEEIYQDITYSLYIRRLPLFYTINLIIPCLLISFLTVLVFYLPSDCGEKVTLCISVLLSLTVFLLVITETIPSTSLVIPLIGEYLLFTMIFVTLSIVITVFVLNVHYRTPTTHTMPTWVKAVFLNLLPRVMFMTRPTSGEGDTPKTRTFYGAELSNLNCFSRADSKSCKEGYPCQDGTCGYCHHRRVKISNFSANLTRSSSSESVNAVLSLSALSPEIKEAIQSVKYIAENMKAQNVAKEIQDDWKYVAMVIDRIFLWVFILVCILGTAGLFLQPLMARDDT
Chain of Neuronal acetylcholine receptor; alpha3/beta4 (P12392 whole entry): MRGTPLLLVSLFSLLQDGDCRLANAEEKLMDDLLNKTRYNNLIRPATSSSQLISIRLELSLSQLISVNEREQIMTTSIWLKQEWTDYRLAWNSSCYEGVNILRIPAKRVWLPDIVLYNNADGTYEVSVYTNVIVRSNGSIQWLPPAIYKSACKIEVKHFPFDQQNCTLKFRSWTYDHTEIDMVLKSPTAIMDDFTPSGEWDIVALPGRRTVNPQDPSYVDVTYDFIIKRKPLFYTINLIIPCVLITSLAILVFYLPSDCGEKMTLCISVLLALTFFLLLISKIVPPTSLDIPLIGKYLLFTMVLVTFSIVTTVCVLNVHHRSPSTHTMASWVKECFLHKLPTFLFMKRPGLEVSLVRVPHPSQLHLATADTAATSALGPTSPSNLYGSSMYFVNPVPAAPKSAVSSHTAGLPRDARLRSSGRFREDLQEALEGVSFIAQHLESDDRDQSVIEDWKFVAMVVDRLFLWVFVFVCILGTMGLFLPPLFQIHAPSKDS
Chain of Neuronal acetylcholine receptor; alpha3/beta2 (P04757 whole entry): as the sequence (P04757 whole entry) above
Chain of Neuronal acetylcholine receptor; alpha3/beta2 (P12390 whole entry): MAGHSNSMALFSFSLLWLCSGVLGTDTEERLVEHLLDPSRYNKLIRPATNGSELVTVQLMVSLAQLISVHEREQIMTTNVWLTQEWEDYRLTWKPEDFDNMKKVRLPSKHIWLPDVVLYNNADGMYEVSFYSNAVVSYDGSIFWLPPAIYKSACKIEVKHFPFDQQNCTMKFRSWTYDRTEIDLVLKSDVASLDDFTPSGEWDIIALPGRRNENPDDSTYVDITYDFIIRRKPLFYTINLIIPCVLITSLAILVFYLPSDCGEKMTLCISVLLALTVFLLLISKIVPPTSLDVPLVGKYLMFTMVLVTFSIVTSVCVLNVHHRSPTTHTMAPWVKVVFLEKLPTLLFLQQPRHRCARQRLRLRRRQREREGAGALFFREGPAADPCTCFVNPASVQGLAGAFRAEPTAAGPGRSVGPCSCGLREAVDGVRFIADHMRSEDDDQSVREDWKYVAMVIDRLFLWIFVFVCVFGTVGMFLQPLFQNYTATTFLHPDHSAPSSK

Structure (SMILES): CC[C@H](C)[C@@H]1NC(=O)[C@H](CCC(=O)O)NC(=O)[C@@H]2CCCN2C(=O)[C@H](Cc2cnc[nH]2)NC(=O)[C@H](CC(=O)O)NC(=O)[C@H](C(C)C)NC(=O)[C@H](CC(N)=O)NC(=O)[C@@H]2CSSC[C@H](NC(=O)CN)C(=O)N[C@@H](CSSC[C@@H](C(N)=O)NC1=O)C(=O)N[C@@H](CO)C(=O)N[C@@H](Cc1cnc[nH]1)C(=O)N1CCC[C@H]1C(=O)N[C@@H](C)C(=O)N2
- IC50 [1]: 2300 nM
- inhibition [2]: 94.4%
- inhibition (Oocyte [3]): 55%
- inhibition (Oocyte [4]): 33.4%
- inhibition [5]: 28.8%
- inhibition (Oocyte [6]): 91.9%
- IC50 [7]: 401 nM
- IC50 [8]: 1660 nM
- IC50 [9]: 54 nM
- IC50 [10]: 4.1 nM
- IC50 [11]: 31.3 nM
- IC50 [12]: 23.6 nM
- IC50 [13]: 16.6 nM
- IC50 [14]: 31.8 nM
- IC50 [15]: 0.7 nM
- IC50 [16]: 29.6 nM
- inhibition (Oocyte [17]): 94.6%

Structure (SMILES): CC[C@H](C)[C@@H]1NC(=O)[C@H](CCC(=O)O)NC(=O)[C@@H]2CCCN2C(=O)[C@H](Cc2cnc[nH]2)NC(=O)[C@H](CC(=O)O)NC(=O)[C@H](C(C)C)NC(=O)[C@H](C)NC(=O)[C@@H]2CSSC[C@H](NC(=O)CN)C(=O)N[C@@H](CSSC[C@@H](C(N)=O)NC1=O)C(=O)N[C@@H](CO)C(=O)N[C@@H](Cc1cnc[nH]1)C(=O)N1CCC[C@H]1C(=O)N[C@@H](C)C(=O)N2 (H-GCCSHPACAVDHPEIC-NH2; disulfide 2-8, 3-16)
- IC50 [18]: 2.1 nM
- IC50 [19]: 4270 nM
- Ratio IC50 (Rattus norvegicus): 2030
- IC50 [1]: 760 nM
- Ratio IC50 [20]: 0.13
- IC50 [15]: 0.66 nM
- TIME (Oocyte [21]): > 0.333 h
- TIME [22]: 0.0167 h
- Ratio IC50 (Hi-5): -0.48
- Ratio IC50 [23]: 14.7

From ChEMBL document CHEMBL4699645 (2020)
